Here are results for two compounds from patent US20050048508A1, “Trehalose receptor and method for detecting trehalose with the same” (KABUSHIKI KAISHA HAYASHIBARA SEIBUTSU KAGAKU KENKYUJO, priority 2002, published 2005).

This experiment addresses T1, T1R1 and T1R2 with G protein α-subunits (α15 and α16/Z chimeric protein) (Mus musculus, UniProt Q925I4+Q99PG6, E350G/G527D/P352R/R175Q).
T1 construct: expressed in transfected cells; host or cells: 293 cells, RCB 1637 (human embryonic kidney)
T1 sequence (Q99PG6 20-842 L120P/N244D/D281A/N309Y/P311T/S314P/H418Y): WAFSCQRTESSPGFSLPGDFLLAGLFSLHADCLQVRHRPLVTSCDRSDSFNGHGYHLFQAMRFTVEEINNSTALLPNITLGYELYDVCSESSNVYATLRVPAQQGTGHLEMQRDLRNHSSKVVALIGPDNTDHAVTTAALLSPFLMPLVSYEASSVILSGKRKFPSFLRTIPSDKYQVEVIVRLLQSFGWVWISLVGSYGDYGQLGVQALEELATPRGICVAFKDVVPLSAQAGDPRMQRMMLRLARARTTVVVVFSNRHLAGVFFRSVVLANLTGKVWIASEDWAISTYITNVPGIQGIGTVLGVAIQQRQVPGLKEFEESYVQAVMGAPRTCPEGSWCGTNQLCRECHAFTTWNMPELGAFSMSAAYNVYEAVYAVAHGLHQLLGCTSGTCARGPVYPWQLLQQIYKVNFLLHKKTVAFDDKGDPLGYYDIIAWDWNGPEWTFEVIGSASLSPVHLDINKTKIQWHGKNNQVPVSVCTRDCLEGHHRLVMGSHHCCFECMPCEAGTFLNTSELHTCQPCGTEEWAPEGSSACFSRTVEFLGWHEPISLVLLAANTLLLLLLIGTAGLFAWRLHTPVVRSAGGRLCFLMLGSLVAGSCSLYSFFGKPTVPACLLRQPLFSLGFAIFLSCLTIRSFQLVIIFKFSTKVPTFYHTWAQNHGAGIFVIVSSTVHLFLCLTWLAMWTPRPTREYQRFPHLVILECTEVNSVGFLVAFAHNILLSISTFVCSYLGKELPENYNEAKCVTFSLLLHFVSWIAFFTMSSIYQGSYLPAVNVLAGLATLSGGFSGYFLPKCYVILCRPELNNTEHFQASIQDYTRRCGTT
T1 sequence (Q925I4 20-843 R175Q/E350G/P352R/G527D): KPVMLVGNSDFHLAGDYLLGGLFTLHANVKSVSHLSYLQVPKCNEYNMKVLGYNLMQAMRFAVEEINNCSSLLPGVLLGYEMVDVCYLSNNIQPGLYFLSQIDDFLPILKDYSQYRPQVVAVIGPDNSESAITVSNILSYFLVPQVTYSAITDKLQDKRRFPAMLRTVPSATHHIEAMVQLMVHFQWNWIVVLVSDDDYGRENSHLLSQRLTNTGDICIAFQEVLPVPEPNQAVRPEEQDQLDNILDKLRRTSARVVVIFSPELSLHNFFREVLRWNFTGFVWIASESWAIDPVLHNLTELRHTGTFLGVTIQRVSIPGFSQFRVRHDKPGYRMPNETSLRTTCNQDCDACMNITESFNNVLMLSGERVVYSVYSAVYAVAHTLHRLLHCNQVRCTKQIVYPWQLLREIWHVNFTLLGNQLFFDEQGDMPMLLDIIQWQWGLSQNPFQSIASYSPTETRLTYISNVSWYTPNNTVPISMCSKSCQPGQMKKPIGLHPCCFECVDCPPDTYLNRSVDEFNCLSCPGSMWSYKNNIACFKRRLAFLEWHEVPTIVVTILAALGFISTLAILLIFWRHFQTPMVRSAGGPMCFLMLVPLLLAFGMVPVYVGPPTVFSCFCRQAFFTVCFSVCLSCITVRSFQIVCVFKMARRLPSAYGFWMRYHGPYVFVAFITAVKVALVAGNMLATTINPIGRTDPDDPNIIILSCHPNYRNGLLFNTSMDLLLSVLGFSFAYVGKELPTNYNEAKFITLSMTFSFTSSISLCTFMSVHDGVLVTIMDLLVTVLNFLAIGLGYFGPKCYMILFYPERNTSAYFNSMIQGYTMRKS
Kind of experiment: Intracellular calcium ion assay, 293 cells coexpressing G protein α-subunits, T1R1 and T1R2. To be noted: 293 cells: T1R1 + T1R2 + G protein α-subunits; 0.67 ml of 1 M saccharide solution added to 2 ml cell suspension; FLUO-4 AM. Type of experiment: cell-based. The protocol: The coexpression vector for the G protein α-subunit α15 and the G protein α16/Z chimeric protein (hereinafter designated as “G protein α-subunits”) obtained in Example 1-3 was gene transferred to 293 cells, RCB 1637, a human embryonic kidney cell line, available from the Riken Bioresource Center, Ibaraki, Japan, by conventional lipofection. The gene transferred cells were suspended in Dulbecco's Modified Eagle's Medium (D-MEM) supplemented with 1 mg/L of “PUROMYCIN”, a trade mane of puromycin commercialized by Edge Biosystems, MD, USA, and 10% (v/v) of fetal calf serum to give a cell density of 2×10^6 cells/ml and cultured in a plastic petri dish for cell culture. […]
The captioned reactivity test was conducted according to a conventional intracellular calcium ion assay: 293 Cells prepared in Example 3, capable of coexpressing the G protein α-subunits and the sweet taste receptor(s), were cultured in a plastic petri dish for cell culture until reaching its confluent phase. […] Two milliliters of the resultant cell suspension was injected into a glass cuvette, commercialized by Hitachi, Ltd., Tokyo, Japan, and analyzed on “HITACHI 650-40”, a fluorescence spectrophotometer commercialized by Hitachi, Ltd., Tokyo, Japan. […]
On the technique in general: A change in cytosolic calcium serves as a functional read-out for many receptors and channels.

In the case of `OC[C@H]1O[C@@](CO)(O[C@H]2O[C@H](CO)[C@@H](O)[C@H](O)[C@H]2O)[C@@H](O)[C@@H]1O` [Sucrose, reference compound], the “Influx of calcium ion” value is recorded as “Negative”.

Turning to `OC[C@H]1O[C@H](O[C@H]2O[C@H](CO)[C@@H](O)[C@H](O)[C@H]2O)[C@H](O)[C@@H](O)[C@@H]1O` [Trehalose], the “Influx of calcium ion” value is “Negative”.
